Each structure is given as a SMILES string.

This assay deals with Alpha-1B adrenergic receptor (Mesocricetus auratus) (UniProt P18841). Put plainly: Binding affinity to hamster alpha-1B adrenergic receptor.
Chain of Alpha-1B adrenergic receptor (Mesocricetus auratus) (P18841 whole entry, looked up): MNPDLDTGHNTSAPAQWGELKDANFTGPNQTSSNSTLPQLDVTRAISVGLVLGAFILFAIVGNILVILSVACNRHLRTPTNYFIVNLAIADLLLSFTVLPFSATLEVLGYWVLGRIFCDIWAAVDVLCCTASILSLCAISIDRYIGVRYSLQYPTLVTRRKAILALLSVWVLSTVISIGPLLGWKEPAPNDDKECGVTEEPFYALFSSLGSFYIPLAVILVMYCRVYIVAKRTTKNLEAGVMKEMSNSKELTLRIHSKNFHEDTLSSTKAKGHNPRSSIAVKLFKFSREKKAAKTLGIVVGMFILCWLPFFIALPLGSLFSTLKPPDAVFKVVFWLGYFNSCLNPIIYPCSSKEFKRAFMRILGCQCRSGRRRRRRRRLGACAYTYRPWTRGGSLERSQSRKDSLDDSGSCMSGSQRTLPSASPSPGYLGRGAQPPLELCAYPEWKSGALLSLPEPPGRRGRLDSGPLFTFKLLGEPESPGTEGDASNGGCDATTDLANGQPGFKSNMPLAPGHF
Molecule `COc1cc(N)c(C(=O)NCCN2C[C@@H]3CCc4c(OC)cccc4[C@@H]3C2)cc1OC` [2-Amino-4,5-dimethoxy-N-[2-(6-methoxy-1,3,3a,4,5,9b-hexahydro-benzo[e]isoindol-2-yl)-ethyl]-benzamide] had a Ki of 29.1 nM. This lies in the double-digit nanomolar range.
Turning to `COc1cc2c(cc1OC)CN(CCN1C[C@@H]3CCc4c(OC)cccc4[C@@H]3C1)CC2` [2-[2-(6,7-Dimethoxy-3,4-dihydro-1H-isoquinolin-2-yl)-ethyl]-6-methoxy-2,3,3a,4,5,9b-hexahydro-1H-benzo[e]isoindole], the Ki amounted to 116 nM.
Take `COc1cccc2c1CC[C@H]1CN(CCn3c(=O)[nH]c4c(sc5ncc(Cl)nc54)c3=O)C[C@@H]21` [3-Chloro-7-[2-(6-methoxy-1,3,3a,4,5,9b-hexahydro-benzo[e]isoindol-2-yl)-ethyl]-5H-9-thia-1,4,5,7-tetraaza-fluorene-6,8-dione]: the affinity corresponds to a Ki of 35.1 nM.
For `COc1cccc2c1CC[C@H]1CN(CCn3c(=O)[nH]c4[nH]ccc4c3=O)C[C@@H]21` [3-[2-(6-Methoxy-1,3,3a,4,5,9b-hexahydro-benzo[e]isoindol-2-yl)-ethyl]-1,7-dihydro-pyrrolo[2,3-d]pyrimidine-2,4-dione] the value was 2.58 nM.
For `COc1cccc2c1CC[C@H]1CN(CCn3c(=O)[nH]c4nccnc4c3=O)C[C@@H]21` [3-[2-(6-Methoxy-1,3,3a,4,5,9b-hexahydro-benzo[e]isoindol-2-yl)-ethyl]-1H-pteridine-2,4-dione] the value was 12.6 nM.
On to `COc1cccc2c1CC[C@H]1CN(CCn3c(=O)[nH]c4ncccc4c3=O)C[C@@H]21` [3-[2-(6-Methoxy-1,3,3a,4,5,9b-hexahydro-benzo[e]isoindol-2-yl)-ethyl]-1H-pyrido[2,3-d]pyrimidine-2,4-dione], for which affinity was put at a Ki of 3.31 nM. Against the preceding molecule, the Ki is about 3.8-fold lower.
For `COc1cccc2c1CC[C@H]1CN(CCn3c(=O)[nH]c4cccnc4c3=O)C[C@@H]21` [3-[2-(6-Methoxy-1,3,3a,4,5,9b-hexahydro-benzo[e]isoindol-2-yl)-ethyl]-1H-pyrido[3,2-d]pyrimidine-2,4-dione] the value was 8.2 nM; for `COc1cccc2c1CC[C@H]1CN(CCn3c(=O)[nH]c4cnccc4c3=O)C[C@@H]21` [3-[2-(6-Methoxy-1,3,3a,4,5,9b-hexahydro-benzo[e]isoindol-2-yl)-ethyl]-1H-pyrido[3,4-d]pyrimidine-2,4-dione], 3.1 nM; for `COc1cccc2c1CC[C@H]1CN(CCn3c(=O)[nH]c4ccncc4c3=O)C[C@@H]21` [3-[2-(6-Methoxy-1,3,3a,4,5,9b-hexahydro-benzo[e]isoindol-2-yl)-ethyl]-1H-pyrido[4,3-d]pyrimidine-2,4-dione], 10.6 nM.
`COc1cccc2c1CC[C@H]1CN(CCn3c(=O)[nH]c4ccccc4c3=O)C[C@@H]21` [3-[2-(6-Methoxy-1,3,3a,4,5,9b-hexahydro-benzo[e]isoindol-2-yl)-ethyl]-1H-quinazoline-2,4-dione] came in with a Ki of 1.16 nM.
Next, `COc1cccc2c1CC[C@H]1CN(CCn3c(=O)[nH]c4sccc4c3=O)C[C@@H]21` [3-[2-(6-Methoxy-1,3,3a,4,5,9b-hexahydro-benzo[e]isoindol-2-yl)-ethyl]-1H-thieno[2,3-d]pyrimidine-2,4-dione]: 2.11 nM; `COc1cccc2c1CC[C@H]1CN(CCn3c(=O)[nH]c4ccsc4c3=O)C[C@@H]21` [3-[2-(6-Methoxy-1,3,3a,4,5,9b-hexahydro-benzo[e]isoindol-2-yl)-ethyl]-1H-thieno[3,2-d]pyrimidine-2,4-dione]: 1.63 nM.
For `COc1cccc2c1CC[C@H]1CN(CCn3c(=O)[nH]c4cscc4c3=O)C[C@@H]21` [3-[2-(6-Methoxy-1,3,3a,4,5,9b-hexahydro-benzo[e]isoindol-2-yl)-ethyl]-1H-thieno[3,4-d]pyrimidine-2,4-dione] the value was 1.01 nM; for `COc1cccc2c1CC[C@H]1CN(CCn3c(=O)[nH]c4cc(C#N)ccc4c3=O)C[C@@H]21` [3-[2-(6-Methoxy-1,3,3a,4,5,9b-hexahydro-benzo[e]isoindol-2-yl)-ethyl]-2,4-dioxo-1,2,3,4-tetrahydro-quinazoline-7-carbonitrile], 1.56 nM; for `COC(=O)c1ccc2c(=O)n(CCN3C[C@@H]4CCc5c(OC)cccc5[C@@H]4C3)c(=O)[nH]c2c1` [3-[2-(6-Methoxy-1,3,3a,4,5,9b-hexahydro-benzo[e]isoindol-2-yl)-ethyl]-2,4-dioxo-1,2,3,4-tetrahydro-quinazoline-7-carboxylic acid methyl ester], 1.64 nM.
In the case of `COC(=O)c1cc2[nH]c(=O)n(CCN3C[C@@H]4CCc5c(OC)cccc5[C@@H]4C3)c(=O)c2s1` [3-[2-(6-Methoxy-1,3,3a,4,5,9b-hexahydro-benzo[e]isoindol-2-yl)-ethyl]-2,4-dioxo-1,2,3,4-tetrahydro-thieno[3,2-d]pyrimidine-6-carboxylic acid methyl ester], the Ki was determined as 3.37 nM.
For `COc1cccc2c1CC[C@H]1CN(CCn3c(=O)[nH]c4cccc(C)c4c3=O)C[C@@H]21` [3-[2-(6-Methoxy-1,3,3a,4,5,9b-hexahydro-benzo[e]isoindol-2-yl)-ethyl]-5-methyl-1H-quinazoline-2,4-dione] the value was 1.04 nM; for `COc1cccc2c1CC[C@H]1CN(CCn3c(=O)[nH]c4cc(C)c(C)cc4c3=O)C[C@@H]21` [3-[2-(6-Methoxy-1,3,3a,4,5,9b-hexahydro-benzo[e]isoindol-2-yl)-ethyl]-6,7-dimethyl-1H-quinazoline-2,4-dione], 4.07 nM; for `COc1cccc2c1CC[C@H]1CN(CCn3c(=O)[nH]c4c(C)cc(C)cc4c3=O)C[C@@H]21` [3-[2-(6-Methoxy-1,3,3a,4,5,9b-hexahydro-benzo[e]isoindol-2-yl)-ethyl]-6,8-dimethyl-1H-quinazoline-2,4-dione], 16.3 nM.
For `COc1cccc2c1CC[C@H]1CN(CCn3c(=O)[nH]c4cc(-c5ccccc5)sc4c3=O)C[C@@H]21` [3-[2-(6-Methoxy-1,3,3a,4,5,9b-hexahydro-benzo[e]isoindol-2-yl)-ethyl]-6-phenyl-1H-thieno[3,2-d]pyrimidine-2,4-dione] the value was 11.3 nM; for `COc1cccc2c1CC[C@H]1CN(CCn3c(=O)[nH]c4c(C)c(C)ccc4c3=O)C[C@@H]21` [3-[2-(6-Methoxy-1,3,3a,4,5,9b-hexahydro-benzo[e]isoindol-2-yl)-ethyl]-7,8-dimethyl-1H-quinazoline-2,4-dione], 1.32 nM; for `COc1cccc2c1CC[C@H]1CN(CCn3c(=O)[nH]c4cc([N+](=O)[O-])ccc4c3=O)C[C@@H]21` [3-[2-(6-Methoxy-1,3,3a,4,5,9b-hexahydro-benzo[e]isoindol-2-yl)-ethyl]-7-nitro-1H-quinazoline-2,4-dione], 3.33 nM.
Next, `COc1cccc2c1CC[C@H]1CN(CCn3c(=O)[nH]c4cccc(Cl)c4c3=O)C[C@@H]21` [5-Chloro-3-[2-(6-methoxy-1,3,3a,4,5,9b-hexahydro-benzo[e]isoindol-2-yl)-ethyl]-1H-quinazoline-2,4-dione]: 0.92 nM; `COc1cc2c(=O)n(CCN3C[C@@H]4CCc5c(OC)cccc5[C@@H]4C3)c(=O)n(C)c2cc1OC` [6,7-Dimethoxy-3-[2-(6-methoxy-1,3,3a,4,5,9b-hexahydro-benzo[e]isoindol-2-yl)-ethyl]-1-methyl-1H-quinazoline-2,4-dione]: 3.31 nM.
With `COc1cc2[nH]c(=O)n(CCN3C[C@@H]4CCc5c(OC)cccc5[C@@H]4C3)c(=O)c2cc1OC` [6,7-Dimethoxy-3-[2-(6-methoxy-1,3,3a,4,5,9b-hexahydro-benzo[e]isoindol-2-yl)-ethyl]-1H-quinazoline-2,4-dione], the affinity, expressed as Ki, was 6.46 nM.
Molecule `COc1cc2c(cc1OC)C(=O)N(CCN1C[C@@H]3CCc4c(OC)cccc4[C@@H]3C1)CN2` [6,7-Dimethoxy-3-[2-(6-methoxy-1,3,3a,4,5,9b-hexahydro-benzo[e]isoindol-2-yl)-ethyl]-2,3-dihydro-1H-quinazolin-4-one] gave an inhibitory constant (Ki) of 95.2 nM.
The molecule `COc1cc2c(cc1OC)NC(=O)N(CCN1C[C@@H]3CCc4c(OC)cccc4[C@@H]3C1)C2` [6,7-Dimethoxy-3-[2-(6-methoxy-1,3,3a,4,5,9b-hexahydro-benzo[e]isoindol-2-yl)-ethyl]-3,4-dihydro-1H-quinazolin-2-one] registered an inhibition constant Ki of 191 nM.
Next, `COc1cc2ncn(CCN3C[C@@H]4CCc5c(OC)cccc5[C@@H]4C3)c(=O)c2cc1OC` [6,7-Dimethoxy-3-[2-(6-methoxy-1,3,3a,4,5,9b-hexahydro-benzo[e]isoindol-2-yl)-ethyl]-3H-quinazolin-4-one]: 15.3 nM; `COc1cc2[nH]c(=O)n(CCN3C[C@@H]4CCc5c(OC)cccc5[C@@H]4C3)c(=O)c2cc1Cl` [6-Chloro-7-methoxy-3-[2-(6-methoxy-1,3,3a,4,5,9b-hexahydro-benzo[e]isoindol-2-yl)-ethyl]-1H-quinazoline-2,4-dione]: 9.27 nM.
In the case of `COc1ccc2[nH]c(=O)n(CCN3C[C@@H]4CCc5c(OC)cccc5[C@@H]4C3)c(=O)c2c1` [6-Methoxy-3-[2-(6-methoxy-1,3,3a,4,5,9b-hexahydro-benzo[e]isoindol-2-yl)-ethyl]-1H-quinazoline-2,4-dione], the inhibitory constant (Ki) is 3.76 nM.
For `COc1cc2[nH]c(=O)n(CCN3C[C@@H]4CCc5c(OC)cccc5[C@@H]4C3)c(=O)c2s1` [6-Methoxy-3-[2-(6-methoxy-1,3,3a,4,5,9b-hexahydro-benzo[e]isoindol-2-yl)-ethyl]-1H-thieno[3,2-d]pyrimidine-2,4-dione] the value was 0.74 nM; for `COc1cccc2c1CC[C@H]1CN(CCn3c(=O)[nH]c4c(C)c(OC)sc4c3=O)C[C@@H]21` [6-Methoxy-3-[2-(6-methoxy-1,3,3a,4,5,9b-hexahydro-benzo[e]isoindol-2-yl)-ethyl]-7-methyl-1H-thieno[3,2-d]pyrimidine-2,4-dione], 7.14 nM.
`COc1cccc2c1CC[C@H]1CN(CCn3c(=O)[nH]c4cc(Cl)ccc4c3=O)C[C@@H]21` [7-Chloro-3-[2-(6-methoxy-1,3,3a,4,5,9b-hexahydro-benzo[e]isoindol-2-yl)-ethyl]-1H-quinazoline-2,4-dione] yielded a Ki of 2.71 nM.
As to `COc1cccc2c1CC[C@H]1CN(CCn3c(=O)[nH]c4c(C(C)C)c(OC)sc4c3=O)C[C@@H]21` [7-Isopropyl-6-methoxy-3-[2-(6-methoxy-1,3,3a,4,5,9b-hexahydro-benzo[e]isoindol-2-yl)-ethyl]-1H-thieno[3,2-d]pyrimidine-2,4-dione], the Ki was 2.31 nM.

These data come from BindingDB's records for doi:10.1021/jm000541z (Abbott Laboratories, 2001).
